Values quoted from earlier work, collected in PubChem BioAssay AID1259409 (Chemical Carcinogenesis Research Information System (CCRIS), 2018).
Where “and” joins values, the source holds several entries; their conditions need not be identical. Equal values may be shown once.

Test system: rodent chemically induced tumor inhibition, incidence and multiplicity
Assay: CCRIS tumor inhibitor studies

Structure (SMILES): COc1ccc([SeH])cc1
- tumour outcome (control, treated, inhibition, significance) (Carcinogen: BENZO[A]PYRENE, 50-32-8, Dose [Inhibitor]: 0, 3.3 UMOL/G DIET BEGINNING 1 WK PRIOR TO CARCINOGEN TREATMENT AND CONTINUING FOR 1 WK POST CARCINOGEN TREATMENT FOLLOW, Route [Inhibitor]: ORAL, Species: MOUSE, Strain/Sex: CD-1/FEMALE, Target Tissue: Type of Lesion: FORESTOMACH: PAPILLOMA, Dose [Carcinogen]: 1 MG IN 0.2 ML CORN OIL 2/WK FOR 4 WK, Promoter: NONE USED): 85%, 75%, 12%, not significant

Structure (SMILES): CCCCCCCCCC
- tumour outcome (control, treated, inhibition, significance) (Carcinogen: BENZO[A]PYRENE, 50-32-8, Dose [Inhibitor]: 25 MG IN 0.1 ML ACETONE 3/WK ADMINISTERED SIMULTANEOUSLY WITH CARCINOGEN FOR DU RATION OF STUDY (STUDY DURATION: 440 D), Route [Inhibitor]: DERMAL, Species: MOUSE, Strain/Sex: ICR/FEMALE, Target Tissue: Type of Lesion: SKIN: SQUAMOUS CARCINOMA, Dose [Carcinogen]: 5 UG IN 0.1 ML ACETONE 3/WK FOR DURATION OF STUDY, Promoter: NONE USED): 12/50 (24%), 34/50 (68%), -183%, not calculated
- tumour outcome (control, treated, inhibition, significance) (Carcinogen: BENZO[A]PYRENE, 50-32-8, Dose [Inhibitor]: 25 MG IN 0.1 ML ACETONE 3/WK ADMINISTERED SIMULTANEOUSLY WITH CARCINOGEN FOR DURATION OF STUDY (STUDY DURATION: 440 D), Route [Inhibitor]: DERMAL, Species: MOUSE, Strain/Sex: ICR/FEMALE, Target Tissue: Type of Lesion: SKIN: PAPILLOMA, Dose [Carcinogen]: 5 UG IN 0.1 ML ACETONE 3/WK FOR DURATION OF STUDY, Promoter: NONE USED): 16/50 (32%), 38/50 (76%), -138%, not calculated

Structure (SMILES): O=C1C[C@@H](c2ccc(O)cc2)Oc2cc(O)cc(O)c21
- tumour outcome (control, treated, inhibition, significance) (Carcinogen: 7,12-DIMETHYLBENZ[A]ANTHRACENE, 57-97-6, Dose [Inhibitor]: 100 UG IN 0.2 ML ACETONE ONCE 5 MIN BEFORE CARCINOGEN TREATMENT (STUDY DURATION: 31 WK), Route [Inhibitor]: DERMAL, Species: MOUSE, Strain/Sex: CD-1/FEMALE, Target Tissue: Type of Lesion: SKIN: PAPILLOMA, Dose [Carcinogen]: 10 NMOL IN 0.2 ML ACETONE ONCE, Promoter: 12-O-TETRADECANOYLPHORBOL-13-ACETATE, 16561-29-8): 87%, 94%, -8%, not calculated
- outcome (Carcinogen: N-Methyl-N'-nitro-N-nitrosoguanidine (70-25-7) and saturated sodium chloride (7647-14-5), Dose [Inhibitor]: 200 mg/kg bw dissolved in corn oil for 20 wk from first dose of MNNG + NaCl and from the 6th wk of MNNG + NaCl induction, Route [Inhibitor]: Gavage, Species: Rat, Strain/Sex: Wistar/Male, Target Tissue: Type of Lesion: Stomach, Dose [Carcinogen]: 200 mg/kg at days 0 and 14 (MNNG) and 1 ml/rat 3 days for 4 wk (NaCl); study duration 20 wk), Promoter: None): 0 (0) in negative controls; 6 (100) in positive controls; 0 (0) simultaneous tre

Structure (SMILES): CC(=O)O
- tumour outcome (control, treated, inhibition, significance) (Dose [Inhibitor]: 0, 60 UMOL (MG) INJECTED WITH CARCINOGEN INTO THIGH OF BOTH HIND LIMBS (STUDY DURATION: 79 WK), Route [Inhibitor]: INTRAMUSCULAR, Species: RAT, Strain/Sex: F344/MALE, Target Tissue: Type of Lesion: INJECTION SITE: SARCOMA, Dose [Carcinogen]: 2.5 MG PER SITE INJECTED INTO THIGH OF BOTH HIND LIMBS, Promoter: NONE USED): 100%, 95%, 5%, not significant

Structure (SMILES): N
- tumour outcome (control, treated, inhibition, significance) (Carcinogen: N-BUTYL-N-(4-HYDROXYBUTYL)NITROSAMINE, 3817-11-6, Dose [Inhibitor]: 0, 1% IN DRINKING WATER FOR 31 WK BEGINNING POST CARCINOGEN DOSE (STUDY DURATION: 36 WK), Route [Inhibitor]: ORAL, Species: RAT, Strain/Sex: F344/MALE, Target Tissue: Type of Lesion: URINARY BLADDER: CARCINOMA, Dose [Carcinogen]: 0.05% IN DRINKING WATER FOR 4 WK, Promoter: BUTYLATED HYDROXYANISOLE, 25013-16-5): 5/15 (33%), 3/15 (20%), 39%, not significant
- tumour outcome (control, treated, inhibition, significance) (Carcinogen: N-BUTYL-N-(4-HYDROXYBUTYL)NITROSAMINE, 3817-11-6, Dose [Inhibitor]: 0, 1% IN DRINKING WATER FOR 31 WK BEGINNING POST CARCINOGEN DOSE (STUDY DURATION: 36 WK), Route [Inhibitor]: ORAL, Species: RAT, Strain/Sex: F344/MALE, Target Tissue: Type of Lesion: URINARY BLADDER: CARCINOMA, Dose [Carcinogen]: 0.05% IN DRINKING WATER FOR 4 WK, Promoter: SODIUM BICARBONATE, 144-55-8): 8/15 (53%), 4/15 (27%), 49%, not significant
- tumour outcome (control, treated, inhibition, significance) (Carcinogen: N-BUTYL-N-(4-HYDROXYBUTYL)NITROSAMINE, 3817-11-6, Dose [Inhibitor]: 0, 1% IN DRINKING WATER FOR 31 WK BEGINNING POST CARCINOGEN DOSE (STUDY DURATION: 36 WK), Route [Inhibitor]: ORAL, Species: RAT, Strain/Sex: F344/MALE, Target Tissue: Type of Lesion: URINARY BLADDER: PAPILLOMA, Dose [Carcinogen]: 0.05% IN DRINKING WATER FOR 4 WK, Promoter: BUTYLATED HYDROXYANISOLE, 25013-16-5): 8/15 (53%), 8/15 (53%), 0%, not significant
- tumour outcome (control, treated, inhibition, significance) (Carcinogen: N-BUTYL-N-(4-HYDROXYBUTYL)NITROSAMINE, 3817-11-6, Dose [Inhibitor]: 0, 1% IN DRINKING WATER FOR 31 WK BEGINNING POST CARCINOGEN DOSE (STUDY DURATION: 36 WK), Route [Inhibitor]: ORAL, Species: RAT, Strain/Sex: F344/MALE, Target Tissue: Type of Lesion: URINARY BLADDER: PAPILLOMA, Dose [Carcinogen]: 0.05% IN DRINKING WATER FOR 4 WK, Promoter: SODIUM BICARBONATE, 144-55-8): 9/15 (60%), 8/15 (53%), 12%, not significant

Structure (SMILES): CC1(C)CC[C@]2(CO)CC[C@]3(C)C(=CC[C@@H]4[C@@]5(C)CC[C@H](O)[C@@](C)(CO)[C@@H]5CC[C@]43C)[C@H]2C1
- tumour outcome (control, treated, inhibition, significance) (Carcinogen: 7,12-DIMETHYLBENZ[A]ANTHRACENE, 57-97-6, Dose [Inhibitor]: 81 NMOL IN 100 µL ACETONE/DMSO (99:1) APPLIED 40 MIN PRIOR TO EACH PROMOTER DOSE (STUDY DURATION: 18 WK), Route [Inhibitor]: DERMAL, Species: MOUSE, Strain/Sex: ICR, Target Tissue: Type of Lesion: SKIN: CARCINOMA, Dose [Carcinogen]: 100 UG ONCE, Promoter: 12-O-TETRADECANOYLPHORBOL-13-ACETATE, 16561-29-8): 100%, 20%, 80%, not calculated

Structure (SMILES): Oc1c(F)c(F)cc(F)c1F
- tumour outcome (control, treated, inhibition, significance) (Carcinogen: BENZO[A]PYRENE, 50-32-8, Dose [Inhibitor]: 0.03 MMOL/G OF DIET DAILY STARTING 7 D BEFORE AND CONTINUING THROUGH 3 D AFTER CARCINOGEN TREATMENT FOLLOWED BY OBSERVAT, Route [Inhibitor]: ORAL, Species: MOUSE, Strain/Sex: ICR/FEMALE, Target Tissue: Type of Lesion: FORESTOMACH: NEOPLASM, Dose [Carcinogen]: 1 MG IN 0.2 ML CORN OIL 2/WK FOR 4 WK, Promoter: NONE USED): 100%, 95%, 5%, not significant and 97%, 84%, 13%, not significant

Structure (SMILES): c1cnc2c(c1)ccc1cccnc12
- tumour outcome (control, treated, inhibition, significance) (Dose [Inhibitor]: 0, 15 MG/KG BW EVERY OTHER DAY BEGINNING 1 WK AFTER CARCINOGEN DOSING THROUGH WK 52 WK (STUDY DURATION: 52 WK), Route [Inhibitor]: INTRAPERITONEAL, Species: RAT, Strain/Sex: WISTAR/MALE, Target Tissue: Type of Lesion: STOMACH: ADENOCARCINOMA, Dose [Carcinogen]: 25 UG/ML IN DRINKING WATER FOR 25 WK, Promoter: SODIUM CHLORIDE (7647-14-5)): 19/20 (95%), 9/20 (45%), 53%, p< 0.001
- tumour outcome (control, treated, inhibition, significance) (Dose [Inhibitor]: 0, 30 MG/KG BW EVERY OTHER DAY BEGINNING 1 WK AFTER CARCINOGEN DOSING THROUGH WK 52 WK (STUDY DURATION: 52 WK), Route [Inhibitor]: INTRAPERITONEAL, Species: RAT, Strain/Sex: WISTAR/MALE, Target Tissue: Type of Lesion: STOMACH: ADENOCARCINOMA, Dose [Carcinogen]: 25 UG/ML IN DRINKING WATER FOR 25 WK, Promoter: SODIUM CHLORIDE (7647-14-5)): 19/20 (95%), 7/20 (35%), 63%, p< 0.01

Structure (SMILES): C#C[C@]1(O)CC[C@H]2[C@@H]3CCc4cc(O)ccc4[C@H]3[C@H](OC)C[C@@]21C
- tumour outcome (control, treated, inhibition, significance) (Carcinogen: N-METHYL-N-NITROSOUREA, 684-93-5, Dose [Inhibitor]: 0, 24 UG 3/WK FOR THE DURATION OF STUDY BEGINNING 7 D PRIOR TO CARCINOGEN DOSE (STUDY DURATION: 187 D), Route [Inhibitor]: SUBCUTANEOUS, Species: RAT, Strain/Sex: SPRAGUE-DAWLEY/FEMALE, Target Tissue: Type of Lesion: MAMMARY GLAND: TUMOR, Dose [Carcinogen]: 50 MG/KG BW ONCE, Promoter: NONE USED): 100%, 90%, 10%, not significant
- tumour outcome (control, treated, inhibition, significance) (Carcinogen: N-METHYL-N-NITROSOUREA, 684-93-5, Dose [Inhibitor]: 10 UG DAILY STARTING SIMULTANEOUSLY WITH CARCINOGEN TREATMENT AND CONTINUING FOR DURATION OF STUDY (STUDY DURATION: 145, Route [Inhibitor]: INJECTION, Species: RAT, Strain/Sex: SPRAGUE-DAWLEY/FEMALE, Target Tissue: Type of Lesion: MAMMARY GLAND: TUMOR, Dose [Carcinogen]: 5 MG/100 G BW AT 0, 4 AND 8 WK OF STUDY, Promoter: NONE USED): 86%, 54%, 37%, not calculated
